Measured values taken from PMC2363132, “Phase I and pharmacokinetic study of DACA (XR5000): a novel inhibitor of topoisomerase I and II” (British Journal of Cancer, 1999).
Where two headings read alike, the source gives them in different places.

How the values were obtained:
[1] = set-up: method as in Evans et al, 1992; Paxton et al, 1992, 1993a, 1993b; conditions: preclinical; ref Evans et al, 1992; Paxton et al, 1992, 1993a, 1993b; cited from earlier work
murine 16/C tumour = test system: murine 16/C tumour; set-up: method as in Baguley et al, 1995; conditions: ref Baguley et al, 1995; cited from earlier work
mice = conditions: murine data, cited from earlier work
[2] = test system: patients with solid tumours
metastatic solid tumour = assay: Anti-tumour activity in patients, WHO criteria; type: in vivo, human; conditions: 41 patients, 9-800 mg m-2
[3] = test system: sublines of the Jurkat human leukaemia cell line, which have reduced amounts of topoisomerase II; set-up: method as in Finlay et al, 1993; conditions: ref Finlay et al, 1993; cited from earlier work
[4] = set-up: method as in Evans et al, 1992; Paxton et al, 1992, 1993a, 1993b; conditions: preclinical pharmacology studies; ref Evans et al, 1992; Paxton et al, 1992, 1993a, 1993b; cited from earlier work
[5] = test system: multi-drug resistant subline of the P388 leukaemia expressing the P-glycoprotein; set-up: method as in Baguley et al, 1990; conditions: ref Baguley et al, 1990; cited from earlier work
L1210 leukaemia = conditions: cited from earlier work
Colon 11 A = test system: Colon 11 A; set-up: method as in Baguley et al, 1995; conditions: Colon 11 A tumour; ref Baguley et al, 1995; cited from earlier work
Colon 38 = test system: Colon 38; set-up: method as in Baguley et al, 1995; conditions: Colon 38 tumour; ref Baguley et al, 1995; cited from earlier work
[6] = human, in vivo
Lewis lung carcinoma = test system: Lewis lung carcinoma; set-up: method as in Atwell et al, 1987; Finlay and Baguley, 1989; conditions: Lewis lung carcinoma in mice; ref Atwell et al, 1987; Finlay and Baguley, 1989; cited from earlier work
P388 leukaemia = conditions: cited from earlier work
clinical = conditions: human, in vivo; for Cmax: 800 mg
cancer patients = test system: cancer patients; set-up: method as in Abigerges et al, 1996; conditions: phase I trial; ref Abigerges et al, 1996; cited from earlier work

Question: Which results are given for CN(C)CCNC(=O)c1cccc2cc3ccccc3nc12.Cl.Cl [DACA, N-[2-(dimethylamino)ethyl] acridine-4-carboxamide dihydrochloride]?
Answer: unbound fraction in mouse plasma [1]: 15.8%; activity in vivo (murine 16/C tumour): highly active; LD10 (mice; five consecutive daily i.v. doses): approximately 30 mg kg-1 per day; LD10 (mice; single i.v. dose): 58 mg/kg; maximum tolerated dose (MTD) ([2]; 3 h i.v. infusion on 3 successive days, repeated every 3 weeks): 800 mg m-2 d-1; dose-limiting toxicity (DLT) ([2]; 3 h i.v. infusion on 3 successive days, 800 mg m-2): pain during the infusion; clinically significant myelosuppression ([2]; all dose levels): rare; objective responses according to WHO criteria (metastatic solid tumour): no objective responses; sensitivity of Jurkat sublines with reduced topoisomerase II [3]: retain sensitivity; tissue levels in brain, liver, kidney and heart relative to plasma [4]: substantially higher; activity against multi-drug resistant P388 subline expressing P-glycoprotein [5]: maintains activity; activity in vivo (L1210 leukaemia): only moderate activity; activity in vivo (Colon 11 A): highly active; activity in vivo (Colon 38): highly active; T1/2 [6]: 2.08 h; Vss [6]: 145.21; highest AUC on day 3 of all patients [6]: 54.2; plasma clearance [6]: 81.11; relationship between dose and AUC [6]: linear relationship; activity in vivo (Lewis lung carcinoma): highly active; activity in vivo (P388 leukaemia): only moderate activity; Cmax (clinical; female, Cmax): 3150 ng/mL; Cmax (clinical; Cmax (range)): 2310 to 12100 ng/mL; half-life (clinical; T1/2): 2.22 h; Tmax (clinical; Tmax): 2.91 h; Vd (clinical; Vss): 143 L; clearance (clinical; plasma clearance): 1400 mL/min

Question: With COc1cccc2c1C(=O)c1c(O)c3c(c(O)c1C2=O)C[C@@](O)(C(=O)CO)C[C@@H]3O[C@H]1C[C@H](N)[C@H](O)[C@H](C)O1 [doxorubicin] as the molecule, how does the “sensitivity of Jurkat sublines with reduced topoisomerase II” value [3] read?
Answer: Its value is “highly resistant”.

Question: For COc1cc([C@@H]2c3cc4c(cc3[C@@H](O[C@@H]3O[C@@H]5CO[C@@H](C)O[C@H]5[C@H](O)[C@H]3O)[C@H]3COC(=O)[C@H]23)OCO4)cc(OC)c1O [etoposide], which “sensitivity of Jurkat sublines with reduced topoisomerase II” value [3] is on record?
Answer: Its value is “highly resistant”.

Question: Which dose-limiting toxicity (cancer patients) does the source give for Cc1cnc(NCCCN(C)C)c2c1[nH]c1ccc3cc(O)ccc3c12 [intoplicine] here?
Answer: The dose-limiting toxicity was “hepatotoxicity”.
